The record followed here is article PMC3639963, “A New Class of Small Molecule Inhibitor of BMP Signaling” (PLoS ONE, 2013).

The term IC50 denotes the concentration that inhibits the measured activity by half. A low value points to greater potency. For orientation: inhibition means the change of the read-out against control, counted positive when it falls.

Common to all, as to type: biochemical
In one assay the target is ActRIIA (ACVR2) (Homo sapiens, UniProt P27037). Description: Kinase-Glo assay. The conditions noted are these: at the Km value of ATP, duplicate. How it is done:
A kinase assay for ActRIIA (ACVR2) was performed using Kinase-Glo® (Promega) as per manufacturer’s instructions. […] Inhibitors were added at concentrations between 0 and 10 µM in kinase reaction buffer and tested in duplicate. At 15 min, 30 min, 1 hr, 2 hr, and 3 hr 20 µL aliquots of the reaction mixture was transferred to a 384-well plate and 20 µL of Kinase-Glo® was added and allowed to rest for 10 min to quench the reaction and produce light which was measured using a Spectramax L luminometer (Molecular Devices).

Another assay addresses T1, MUSK (Homo sapiens, UniProt O15146).
T1 construct: purchased Nanosyn (enzymatic panel); SGC in-house recombinant human kinases (DSF panel); Invitrogen (ALK1-6)
T1 sequence (O15146 24-869): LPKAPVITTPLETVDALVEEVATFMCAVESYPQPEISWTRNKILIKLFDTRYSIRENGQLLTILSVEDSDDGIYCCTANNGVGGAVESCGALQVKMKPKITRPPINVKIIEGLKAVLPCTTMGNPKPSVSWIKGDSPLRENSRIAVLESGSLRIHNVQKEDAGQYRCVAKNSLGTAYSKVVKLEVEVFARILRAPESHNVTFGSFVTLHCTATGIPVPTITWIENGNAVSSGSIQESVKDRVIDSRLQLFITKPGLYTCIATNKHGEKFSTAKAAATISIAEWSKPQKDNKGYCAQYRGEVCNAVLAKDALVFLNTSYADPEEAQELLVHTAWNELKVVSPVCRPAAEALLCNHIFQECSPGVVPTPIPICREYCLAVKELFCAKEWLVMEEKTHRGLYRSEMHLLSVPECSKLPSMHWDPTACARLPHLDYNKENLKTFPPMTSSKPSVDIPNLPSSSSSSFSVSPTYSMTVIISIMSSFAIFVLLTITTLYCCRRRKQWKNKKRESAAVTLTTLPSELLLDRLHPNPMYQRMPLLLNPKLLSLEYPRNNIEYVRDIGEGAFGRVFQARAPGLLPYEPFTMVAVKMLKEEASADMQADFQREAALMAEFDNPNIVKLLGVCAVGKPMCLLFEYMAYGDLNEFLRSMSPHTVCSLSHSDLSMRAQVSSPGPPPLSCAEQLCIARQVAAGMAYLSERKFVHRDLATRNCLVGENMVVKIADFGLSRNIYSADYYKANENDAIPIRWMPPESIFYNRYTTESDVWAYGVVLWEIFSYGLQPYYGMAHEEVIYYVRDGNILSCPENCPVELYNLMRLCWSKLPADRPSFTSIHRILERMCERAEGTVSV
Briefly: Nanosyn kinase profiling. The settings on record: read-out: Percentage inhibition; for inhibition at 0.1 µM: 0.1 µM inhibitor; for inhibition at 1 µM: 1 µM inhibitor. The method, boiled down: (§1)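 Percent inhibition of each kinase was measured with the inhibitor at 0.1 µM and at 1 µM, as part of a 200-kinase human selectivity panel.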

In the next assay the target is T2, MST4 (Homo sapiens, UniProt Q9P289).
T2 construct: purchased Nanosyn (enzymatic panel); SGC in-house recombinant human kinases (DSF panel); Invitrogen (ALK1-6)
Briefly: Nanosyn kinase profiling. The settings on record: read-out: Percentage inhibition; for inhibition at 0.1 µM: 0.1 µM inhibitor; for inhibition at 1 µM: 1 µM inhibitor. The essentials: as §1

In another assay the target is T3, GSK3β (Homo sapiens, UniProt P49841).
T3 construct: purchased Nanosyn (enzymatic panel); SGC in-house recombinant human kinases (DSF panel); Invitrogen (ALK1-6)
Briefly: Nanosyn kinase profiling. The settings on record: read-out: Percentage inhibition; for inhibition at 0.1 µM: 0.1 µM inhibitor; for inhibition at 1 µM: 1 µM inhibitor. The method, boiled down:
as §1

The target of a further assay is T4, IRAK4 (Homo sapiens, UniProt Q9NWZ3).
T4 construct: purchased Nanosyn (enzymatic panel); SGC in-house recombinant human kinases (DSF panel); Invitrogen (ALK1-6)
T4 sequence (Q9NWZ3 1-460): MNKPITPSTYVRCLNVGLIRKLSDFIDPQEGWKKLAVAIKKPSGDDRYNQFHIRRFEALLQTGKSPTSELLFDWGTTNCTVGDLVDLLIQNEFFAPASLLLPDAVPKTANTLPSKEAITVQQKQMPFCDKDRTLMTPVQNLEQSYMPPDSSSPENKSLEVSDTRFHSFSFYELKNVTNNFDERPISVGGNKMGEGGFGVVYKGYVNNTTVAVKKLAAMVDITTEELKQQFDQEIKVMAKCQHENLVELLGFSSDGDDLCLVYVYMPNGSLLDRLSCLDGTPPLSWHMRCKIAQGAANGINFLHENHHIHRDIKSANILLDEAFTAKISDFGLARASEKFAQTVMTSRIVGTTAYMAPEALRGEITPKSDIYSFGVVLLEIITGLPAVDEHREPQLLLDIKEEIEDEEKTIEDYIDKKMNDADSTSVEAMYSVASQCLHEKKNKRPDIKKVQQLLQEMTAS
Briefly: Nanosyn kinase profiling. The settings on record: read-out: Percentage inhibition; for inhibition at 0.1 µM: 0.1 µM inhibitor; for inhibition at 1 µM: 1 µM inhibitor. The method, boiled down: as §1

A further assay deals with T5, PAK6 (Homo sapiens, UniProt Q9NQU5).
T5 construct: purchased Nanosyn (enzymatic panel); SGC in-house recombinant human kinases (DSF panel); Invitrogen (ALK1-6)
Description: Nanosyn kinase profiling. The conditions noted are these: read-out: Percentage inhibition; for inhibition at 0.1 µM: 0.1 µM inhibitor; for inhibition at 1 µM: 1 µM inhibitor. The essentials:
as §1

For another assay, the target named is T6, PDGFRα (Homo sapiens, UniProt P16234).
T6 construct: purchased Nanosyn (enzymatic panel); SGC in-house recombinant human kinases (DSF panel); Invitrogen (ALK1-6)
Description: Nanosyn kinase profiling. The settings on record: read-out: Percentage inhibition; for inhibition at 0.1 µM: 0.1 µM inhibitor; for inhibition at 1 µM: 1 µM inhibitor. The method, boiled down: as §1

In a further assay the target is T7, MKNK1 (Homo sapiens, UniProt Q9BUB5).
T7 construct: purchased Nanosyn (enzymatic panel); SGC in-house recombinant human kinases (DSF panel); Invitrogen (ALK1-6)
Description: Nanosyn kinase profiling. The conditions noted are these: read-out: Percentage inhibition; for inhibition at 0.1 µM: 0.1 µM inhibitor; for inhibition at 1 µM: 1 µM inhibitor. The method, boiled down: as §1

A further assay deals with T8, MET (Homo sapiens, UniProt P08581).
T8 construct: purchased Nanosyn (enzymatic panel); SGC in-house recombinant human kinases (DSF panel); Invitrogen (ALK1-6)
Briefly: Nanosyn kinase profiling. The conditions noted are these: read-out: Percentage inhibition; for inhibition at 0.1 µM: 0.1 µM inhibitor; for inhibition at 1 µM: 1 µM inhibitor. The method, boiled down: as §1

For a further assay, the target named is T9, JAK2 (Homo sapiens, UniProt O60674).
T9 construct: purchased Nanosyn (enzymatic panel); SGC in-house recombinant human kinases (DSF panel); Invitrogen (ALK1-6)
Briefly: Nanosyn kinase profiling. The conditions noted are these: read-out: Percentage inhibition; for inhibition at 0.1 µM: 0.1 µM inhibitor; for inhibition at 1 µM: 1 µM inhibitor. The essentials: as §1

Another assay concerns the target T10, PRKX (Homo sapiens, UniProt P51817).
T10 construct: purchased Nanosyn (enzymatic panel); SGC in-house recombinant human kinases (DSF panel); Invitrogen (ALK1-6)
T10 sequence (P51817 1-358): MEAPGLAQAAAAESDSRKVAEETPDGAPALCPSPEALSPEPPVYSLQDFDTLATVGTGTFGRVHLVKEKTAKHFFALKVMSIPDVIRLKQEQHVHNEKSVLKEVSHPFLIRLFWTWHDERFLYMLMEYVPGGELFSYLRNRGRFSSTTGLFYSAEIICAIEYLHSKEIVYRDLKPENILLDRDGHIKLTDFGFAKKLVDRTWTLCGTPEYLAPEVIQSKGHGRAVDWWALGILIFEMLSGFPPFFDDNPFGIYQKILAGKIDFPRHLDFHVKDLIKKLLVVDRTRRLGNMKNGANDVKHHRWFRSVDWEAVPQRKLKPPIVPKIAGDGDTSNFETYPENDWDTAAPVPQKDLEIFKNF
Description: Nanosyn kinase profiling. The settings on record: read-out: Percentage inhibition; for inhibition at 0.1 µM: 0.1 µM inhibitor; for inhibition at 1 µM: 1 µM inhibitor. The method, boiled down:
as §1

The target in the next assay is T11, PDGFRβ (Homo sapiens, UniProt P09619).
T11 construct: purchased Nanosyn (enzymatic panel); SGC in-house recombinant human kinases (DSF panel); Invitrogen (ALK1-6)
Briefly: Nanosyn kinase profiling. The conditions noted are these: read-out: Percentage inhibition; for inhibition at 0.1 µM: 0.1 µM inhibitor; for inhibition at 1 µM: 1 µM inhibitor. The method, boiled down: as §1

T5 sequence (Q9NQU5 whole entry): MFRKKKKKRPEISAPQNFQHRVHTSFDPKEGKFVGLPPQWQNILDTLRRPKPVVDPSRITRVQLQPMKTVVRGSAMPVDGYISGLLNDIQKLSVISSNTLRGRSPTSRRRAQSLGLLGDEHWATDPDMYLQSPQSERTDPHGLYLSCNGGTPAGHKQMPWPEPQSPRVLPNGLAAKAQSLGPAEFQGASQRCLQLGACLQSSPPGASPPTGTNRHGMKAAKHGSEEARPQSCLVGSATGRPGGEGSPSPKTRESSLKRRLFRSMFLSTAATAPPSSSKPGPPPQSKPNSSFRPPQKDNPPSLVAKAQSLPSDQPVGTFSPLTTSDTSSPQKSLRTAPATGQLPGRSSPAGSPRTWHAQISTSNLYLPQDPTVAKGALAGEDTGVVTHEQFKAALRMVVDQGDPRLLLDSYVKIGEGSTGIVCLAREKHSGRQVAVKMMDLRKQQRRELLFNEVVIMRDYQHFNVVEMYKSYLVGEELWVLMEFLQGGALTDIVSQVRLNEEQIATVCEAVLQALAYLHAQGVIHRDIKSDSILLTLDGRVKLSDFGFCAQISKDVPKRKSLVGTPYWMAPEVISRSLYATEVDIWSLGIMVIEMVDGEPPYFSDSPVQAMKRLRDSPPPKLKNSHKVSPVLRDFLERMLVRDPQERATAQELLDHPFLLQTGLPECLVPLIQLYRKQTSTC
T7 sequence (Q9BUB5 whole entry): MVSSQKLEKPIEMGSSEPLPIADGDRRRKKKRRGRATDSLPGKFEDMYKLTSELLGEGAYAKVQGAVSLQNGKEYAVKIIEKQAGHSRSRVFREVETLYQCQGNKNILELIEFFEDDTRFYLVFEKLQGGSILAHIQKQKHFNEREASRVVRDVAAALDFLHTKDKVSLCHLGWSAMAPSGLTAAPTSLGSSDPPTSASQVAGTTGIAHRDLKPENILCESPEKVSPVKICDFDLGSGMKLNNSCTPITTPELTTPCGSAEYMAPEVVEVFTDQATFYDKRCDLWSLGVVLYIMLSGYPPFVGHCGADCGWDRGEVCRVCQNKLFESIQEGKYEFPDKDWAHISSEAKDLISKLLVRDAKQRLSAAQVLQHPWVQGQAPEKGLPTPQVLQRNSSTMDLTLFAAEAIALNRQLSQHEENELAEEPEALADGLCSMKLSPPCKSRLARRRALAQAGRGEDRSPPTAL
T6 sequence (P16234 24-1089): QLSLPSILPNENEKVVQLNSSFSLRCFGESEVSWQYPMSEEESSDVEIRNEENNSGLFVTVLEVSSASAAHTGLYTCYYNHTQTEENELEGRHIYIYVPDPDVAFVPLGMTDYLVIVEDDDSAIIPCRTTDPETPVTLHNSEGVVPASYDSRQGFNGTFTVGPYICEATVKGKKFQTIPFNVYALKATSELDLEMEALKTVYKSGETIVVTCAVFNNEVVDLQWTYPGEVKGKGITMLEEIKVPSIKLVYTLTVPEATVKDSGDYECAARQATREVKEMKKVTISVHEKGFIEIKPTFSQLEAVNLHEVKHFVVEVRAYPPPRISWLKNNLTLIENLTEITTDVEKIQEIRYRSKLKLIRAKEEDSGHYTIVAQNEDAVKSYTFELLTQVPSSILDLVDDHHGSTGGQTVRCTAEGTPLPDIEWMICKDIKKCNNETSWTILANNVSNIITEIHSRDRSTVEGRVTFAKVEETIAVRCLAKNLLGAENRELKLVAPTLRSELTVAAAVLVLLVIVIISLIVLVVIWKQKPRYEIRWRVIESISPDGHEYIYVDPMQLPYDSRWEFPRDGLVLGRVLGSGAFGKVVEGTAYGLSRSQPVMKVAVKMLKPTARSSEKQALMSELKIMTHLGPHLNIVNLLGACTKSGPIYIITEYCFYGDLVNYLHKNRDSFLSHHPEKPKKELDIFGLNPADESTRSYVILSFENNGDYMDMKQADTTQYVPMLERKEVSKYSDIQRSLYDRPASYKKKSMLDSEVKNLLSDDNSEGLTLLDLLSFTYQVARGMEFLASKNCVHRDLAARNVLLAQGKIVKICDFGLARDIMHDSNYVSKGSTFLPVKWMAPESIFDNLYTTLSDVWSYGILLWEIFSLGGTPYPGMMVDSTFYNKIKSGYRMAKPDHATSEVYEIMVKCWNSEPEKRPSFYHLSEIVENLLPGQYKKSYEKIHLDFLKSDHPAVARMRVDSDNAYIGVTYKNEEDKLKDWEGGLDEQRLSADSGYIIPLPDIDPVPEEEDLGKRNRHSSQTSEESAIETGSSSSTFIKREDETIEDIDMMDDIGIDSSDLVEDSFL
T8 sequence (P08581 25-1390): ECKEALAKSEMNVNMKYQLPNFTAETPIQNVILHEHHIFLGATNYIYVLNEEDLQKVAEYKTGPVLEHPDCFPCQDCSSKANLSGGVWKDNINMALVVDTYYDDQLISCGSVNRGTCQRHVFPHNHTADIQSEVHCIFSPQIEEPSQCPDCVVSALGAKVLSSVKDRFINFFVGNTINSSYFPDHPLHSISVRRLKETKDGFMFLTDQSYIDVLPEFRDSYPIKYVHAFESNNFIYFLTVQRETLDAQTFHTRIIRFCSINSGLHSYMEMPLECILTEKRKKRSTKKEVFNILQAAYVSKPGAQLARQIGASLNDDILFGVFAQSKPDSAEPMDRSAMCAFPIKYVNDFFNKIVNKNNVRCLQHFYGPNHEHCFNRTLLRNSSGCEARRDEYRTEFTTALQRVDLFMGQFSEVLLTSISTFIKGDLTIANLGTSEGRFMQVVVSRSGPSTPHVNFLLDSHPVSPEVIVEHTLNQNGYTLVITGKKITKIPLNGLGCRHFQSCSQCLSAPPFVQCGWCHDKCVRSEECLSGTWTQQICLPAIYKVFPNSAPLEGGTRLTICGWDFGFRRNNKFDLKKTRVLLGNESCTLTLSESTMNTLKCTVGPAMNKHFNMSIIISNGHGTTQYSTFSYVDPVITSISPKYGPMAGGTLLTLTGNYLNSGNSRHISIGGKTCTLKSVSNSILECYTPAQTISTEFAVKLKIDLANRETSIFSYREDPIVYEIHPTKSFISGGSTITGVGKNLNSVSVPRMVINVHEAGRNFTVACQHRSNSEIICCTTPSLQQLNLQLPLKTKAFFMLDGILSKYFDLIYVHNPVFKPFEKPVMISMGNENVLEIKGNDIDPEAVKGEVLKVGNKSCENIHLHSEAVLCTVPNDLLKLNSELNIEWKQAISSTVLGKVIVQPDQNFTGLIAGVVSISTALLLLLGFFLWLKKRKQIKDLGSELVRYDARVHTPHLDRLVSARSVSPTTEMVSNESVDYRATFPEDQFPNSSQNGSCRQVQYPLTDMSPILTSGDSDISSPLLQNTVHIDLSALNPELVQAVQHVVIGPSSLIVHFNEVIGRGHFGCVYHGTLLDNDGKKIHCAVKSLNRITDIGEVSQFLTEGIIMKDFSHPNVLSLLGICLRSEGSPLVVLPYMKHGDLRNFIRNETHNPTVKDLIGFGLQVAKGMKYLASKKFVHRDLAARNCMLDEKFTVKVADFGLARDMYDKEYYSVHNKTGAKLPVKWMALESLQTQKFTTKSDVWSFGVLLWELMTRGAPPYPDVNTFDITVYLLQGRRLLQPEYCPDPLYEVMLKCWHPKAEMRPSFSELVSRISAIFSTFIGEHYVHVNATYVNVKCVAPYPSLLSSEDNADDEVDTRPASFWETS
T11 sequence (P09619 33-1106): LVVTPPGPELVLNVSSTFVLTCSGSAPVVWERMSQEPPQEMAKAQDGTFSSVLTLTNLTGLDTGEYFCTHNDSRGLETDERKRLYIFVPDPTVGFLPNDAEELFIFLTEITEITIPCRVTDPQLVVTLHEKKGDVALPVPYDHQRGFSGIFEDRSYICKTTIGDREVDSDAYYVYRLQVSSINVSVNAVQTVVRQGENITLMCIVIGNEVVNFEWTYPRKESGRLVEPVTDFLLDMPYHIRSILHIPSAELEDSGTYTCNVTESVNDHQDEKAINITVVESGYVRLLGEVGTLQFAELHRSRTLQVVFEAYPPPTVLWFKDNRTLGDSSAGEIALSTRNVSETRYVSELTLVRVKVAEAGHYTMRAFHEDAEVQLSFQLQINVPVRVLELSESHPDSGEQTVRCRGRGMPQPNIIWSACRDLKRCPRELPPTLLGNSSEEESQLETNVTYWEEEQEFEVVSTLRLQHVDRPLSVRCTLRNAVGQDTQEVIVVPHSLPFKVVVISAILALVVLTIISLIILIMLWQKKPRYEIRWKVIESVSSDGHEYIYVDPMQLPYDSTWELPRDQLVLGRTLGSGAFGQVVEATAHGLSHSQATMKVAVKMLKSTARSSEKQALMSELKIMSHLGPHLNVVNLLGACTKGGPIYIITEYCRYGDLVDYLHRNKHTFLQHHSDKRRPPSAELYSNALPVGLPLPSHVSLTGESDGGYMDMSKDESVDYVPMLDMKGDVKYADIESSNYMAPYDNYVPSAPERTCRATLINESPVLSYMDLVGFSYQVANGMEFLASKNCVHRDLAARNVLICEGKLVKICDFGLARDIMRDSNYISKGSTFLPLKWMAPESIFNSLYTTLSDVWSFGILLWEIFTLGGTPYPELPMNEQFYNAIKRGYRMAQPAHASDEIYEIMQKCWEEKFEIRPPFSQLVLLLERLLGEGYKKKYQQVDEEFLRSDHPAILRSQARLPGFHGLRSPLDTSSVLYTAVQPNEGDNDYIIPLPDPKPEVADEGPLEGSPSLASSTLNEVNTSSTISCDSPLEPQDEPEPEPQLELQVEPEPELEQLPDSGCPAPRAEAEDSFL
T3 sequence (P49841 whole entry): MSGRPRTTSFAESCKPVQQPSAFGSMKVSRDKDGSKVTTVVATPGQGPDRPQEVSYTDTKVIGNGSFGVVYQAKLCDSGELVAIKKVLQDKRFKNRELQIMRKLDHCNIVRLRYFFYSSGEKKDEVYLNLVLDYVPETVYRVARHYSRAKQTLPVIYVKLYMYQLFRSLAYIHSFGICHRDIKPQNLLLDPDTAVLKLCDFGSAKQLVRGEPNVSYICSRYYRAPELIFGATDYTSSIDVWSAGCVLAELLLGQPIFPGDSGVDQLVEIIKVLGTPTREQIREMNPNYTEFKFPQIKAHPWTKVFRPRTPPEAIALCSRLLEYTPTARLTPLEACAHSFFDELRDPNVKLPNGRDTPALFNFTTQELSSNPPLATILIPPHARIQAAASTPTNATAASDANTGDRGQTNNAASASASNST

Consider `COc1cc(-c2cc(-c3cccc(O)c3)cnc2N)cc(OC)c1OC` [K02288, 3-[6-amino-5-(3,4,5-trimethoxy-phenyl)-pyridin-3-yl]-phenol], for which the IC50 on ActRIIA (ACVR2) turned out to be 220 nM. For the same compound, the inhibition at 0.1 µM was 1.2% at MUSK; 0.4% at MST4; 0.5% on GSK3β; -1% at IRAK4; 0.8% on PAK6; 5.3% on PDGFRα. Besides, the inhibition at 0.1 µM is 0.7% on MKNK1; 0.6% on MET; 0% on JAK2; -1% at PRKX; 7.7% at PDGFRβ. The inhibition at 1 µM on MUSK is -1%; on MST4, 0%; at GSK3β, 1.6%; at IRAK4 it was 0.3%; on PAK6, 1.9%; at PDGFRα, 37%. Besides, the inhibition at 1 µM at MKNK1 is 1.3%; on MET it was -2%; at JAK2 it was 0%; on PRKX, -1%; on PDGFRβ it was 43%.

`c1ccc2c(-c3cnn4cc(-c5ccc(N6CCNCC6)cc5)cnc34)ccnc2c1` [LDN-193189]: the IC50 against ActRIIA (ACVR2) stood at 210 nM. The inhibition at 0.1 µM on MUSK is 5.8%; on MST4 it was -1%; at GSK3β, 2.7%; on IRAK4 it was 0.7%; on PAK6, 8.8%; at PDGFRα, 18%. For the same compound, the inhibition at 0.1 µM was determined as 7.1% on MKNK1; 6.2% at MET; 2% on JAK2; 0.2% on PRKX; 39% on PDGFRβ. Further, the inhibition at 1 µM at MUSK was 26%; on MST4, -5%; on GSK3β it was 2.1%; at IRAK4, 1.9%; on PAK6, 5.1%; on PDGFRα, 56%. Moreover, the inhibition at 1 µM at MKNK1 was found to be 37%; at MET it was 8.4%; at JAK2, 0.5%; at PRKX, 1.2%; on PDGFRβ it was 75%.
